Results: patent US20230085307A1, “PYRIDAZINONE COMPOUND AND HERBICIDE” (NISSAN CHEMICAL CORPORATION, priority 2019, published 2023)

Experiments:
southern crabgrass [1] = assay: Test Example 4: herbicidal effect by soil treatment (Table 19, symbol F); format: in vivo, southern crabgrass (Digitaria ciliaris); conditions: amount of applied herbicide 320 g/ha
In short: (§1)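 Scoring uses the grading scale of an earlier test, three weeks post-application. Treatment consists of spraying a diluted emulsion formulation across the surface of sterilized diluvial soil in which seeds are buried near 1.5 cm deep; boxes are kept in a greenhouse between 25° C. and 30° C.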

rice flat sedge = assay: Test Example 3: herbicidal effect by foliage application, Wagner pot (Table 18, symbol E); format: in vivo, rice flat sedge (Cyperus iria); conditions: amount of applied herbicide 320 g/ha
In short: (§2)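 Plants were sown in alluvial soil held under 0.1–0.5 cm standing water and grown 14 days in a greenhouse at 25–30 °C. An emulsifiable formulation, water-diluted to the set dose, was then sprayed onto the foliage, and effects were scored three weeks later using previously defined criteria.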

Chinese sprangletop = assay: Test Example 3: herbicidal effect by foliage application, Wagner pot (Table 18, symbol D); format: in vivo, chinese sprangletop (Leptochloa chinensis); conditions: amount of applied herbicide 320 g/ha
In short: as §2

redroot pigweed [2] = assay: Test Example 4: herbicidal effect by soil treatment (Table 19, symbol N); format: in vivo, redroot pigweed (Amaranthus retroflexus); conditions: amount of applied herbicide 320 g/ha
In short: as §1

wild oat [3] = assay: Test Example 4: herbicidal effect by soil treatment (Table 19, symbol I); format: in vivo, wild oat (Avena fatua); conditions: amount of applied herbicide 320 g/ha
In short: as §1

redroot pigweed [4] = assay: Test Example 5: herbicidal effect by foliage application, plastic box (Table 20, symbol N); format: in vivo, redroot pigweed (Amaranthus retroflexus); conditions: foliage application, 320 g/ha, evaluated three weeks after application
In short: (§3)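 Post-emergence foliar test in sterilized diluvial soil. Compound applied as water-diluted emulsion at a predetermined rate to 14-day-old plants; evaluation at three weeks.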

barnyard grass [5] = assay: Test Example 4: herbicidal effect by soil treatment (Table 19, symbol H); format: in vivo, barnyard grass (Echinochloa crus-galli); conditions: amount of applied herbicide 320 g/ha
In short: as §1

chickweed [6] = assay: Test Example 4: herbicidal effect by soil treatment (Table 19, symbol P); format: in vivo, common chickweed (Stellaria media); conditions: amount of applied herbicide 320 g/ha
In short: as §1

barnyard grass [7] = assay: Test Example 5: herbicidal effect by foliage application, plastic box (Table 20, symbol H); format: in vivo, barnyard grass (Echinochloa crus-galli); conditions: foliage application, 320 g/ha, evaluated three weeks after application
In short: as §3

barnyard grass [8] = assay: Test Example 3: herbicidal effect by foliage application, Wagner pot (Table 18, symbol H); format: in vivo, barnyard grass (Echinochloa crus-galli); conditions: amount of applied herbicide 320 g/ha
In short: as §2

blackgrass [9] = assay: Test Example 4: herbicidal effect by soil treatment (Table 19, symbol J); format: in vivo, blackgrass (Alopecurus myosuroides); conditions: amount of applied herbicide 320 g/ha
In short: as §1

wild oat [10] = assay: Test Example 5: herbicidal effect by foliage application, plastic box (Table 20, symbol I); format: in vivo, wild oat (Avena fatua); conditions: foliage application, 320 g/ha, evaluated three weeks after application
In short: as §3

chickweed [11] = assay: Test Example 5: herbicidal effect by foliage application, plastic box (Table 20, symbol P); format: in vivo, common chickweed (Stellaria media); conditions: foliage application, 320 g/ha, evaluated three weeks after application
In short: as §3

lambsquarters [12] = assay: Test Example 5: herbicidal effect by foliage application, plastic box (Table 20, symbol O); format: in vivo, lambsquarters (Chenopodium album); conditions: foliage application, 320 g/ha, evaluated three weeks after application
In short: as §3

windgrass [13] = assay: Test Example 4: herbicidal effect by soil treatment (Table 19, symbol L); format: in vivo, windgrass (Apera spica-venti); conditions: amount of applied herbicide 320 g/ha
In short: as §1

velvetleaf [14] = assay: Test Example 4: herbicidal effect by soil treatment (Table 19, symbol M); format: in vivo, velvetleaf (Abutilon theophrasti); conditions: amount of applied herbicide 320 g/ha
In short: as §1

Italian ryegrass [15] = assay: Test Example 5: herbicidal effect by foliage application, plastic box (Table 20, symbol K); format: in vivo, Italian ryegrass (Lolium multiflorum); conditions: foliage application, 320 g/ha, evaluated three weeks after application
In short: as §3

green foxtail [16] = assay: Test Example 4: herbicidal effect by soil treatment (Table 19, symbol G); format: in vivo, green foxtail (Setaria viridis); conditions: amount of applied herbicide 320 g/ha
In short: as §1

velvetleaf [17] = assay: Test Example 5: herbicidal effect by foliage application, plastic box (Table 20, symbol M); format: in vivo, velvetleaf (Abutilon theophrasti); conditions: foliage application, 320 g/ha, evaluated three weeks after application
In short: as §3

Italian ryegrass [18] = assay: Test Example 4: herbicidal effect by soil treatment (Table 19, symbol K); format: in vivo, Italian ryegrass (Lolium multiflorum); conditions: amount of applied herbicide 320 g/ha
In short: as §1

green foxtail [19] = assay: Test Example 5: herbicidal effect by foliage application, plastic box (Table 20, symbol G); format: in vivo, green foxtail (Setaria viridis); conditions: foliage application, 320 g/ha, evaluated three weeks after application
In short: as §3

southern crabgrass [20] = assay: Test Example 5: herbicidal effect by foliage application, plastic box (Table 20, symbol F); format: in vivo, southern crabgrass (Digitaria ciliaris); conditions: foliage application, 320 g/ha, evaluated three weeks after application
In short: as §3

blackgrass [21] = assay: Test Example 5: herbicidal effect by foliage application, plastic box (Table 20, symbol J); format: in vivo, blackgrass (Alopecurus myosuroides); conditions: foliage application, 320 g/ha, evaluated three weeks after application
In short: as §3

Japanese bulrush = assay: Test Example 1: herbicidal activity, application before weed generation under submerged conditions (Table 16, symbol B); format: in vivo, Japanese bulrush (Schoenoplectus juncoides); conditions: 320 g/ha applied herbicide
In short: (§4)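 Alluvial soil was flooded to 4 cm depth, weed seeds were sown mixed and 2.5-leaf rice seedlings were transplanted. On sowing day, the compound's emulsion, diluted in water to a set dose, was applied to the water surface. Plants grew at 25–30 °C and were scored 0–5 after three weeks.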

lambsquarters [22] = assay: Test Example 4: herbicidal effect by soil treatment (Table 19, symbol O); format: in vivo, lambsquarters (Chenopodium album); conditions: amount of applied herbicide 320 g/ha
In short: as §1

late watergrass = assay: Test Example 1: herbicidal activity, application before weed generation under submerged conditions (Table 16, symbol A); format: in vivo, late watergrass (Echinochloa oryzicola); conditions: 320 g/ha applied herbicide
In short: as §4

windgrass [23] = assay: Test Example 5: herbicidal effect by foliage application, plastic box (Table 20, symbol L); format: in vivo, windgrass (Apera spica-venti); conditions: foliage application, 320 g/ha, evaluated three weeks after application
In short: as §3

oval-leafed pondweed = assay: Test Example 1: herbicidal activity, application before weed generation under submerged conditions (Table 16, symbol C); format: in vivo, oval-leafed pondweed (Monochoria vaginalis); conditions: 320 g/ha applied herbicide
In short: as §4

persian speedwell [24] = assay: Test Example 4: herbicidal effect by soil treatment (Table 19, symbol R); format: in vivo, Persian speedwell (Veronica persica); conditions: amount of applied herbicide 320 g/ha
In short: as §1

persian speedwell [25] = assay: Test Example 5: herbicidal effect by foliage application, plastic box (Table 20, symbol R); format: in vivo, Persian speedwell (Veronica persica); conditions: foliage application, 320 g/ha, evaluated three weeks after application
In short: as §3

Compound	F: southern crabgrass, herbicidal effect rating (southern crabgrass [1])	herbicidal effect on E: rice flat sedge (rice flat sedge)	herbicidal effect on D: Chinese sprangletop (Chinese sprangletop)	N: redroot pigweed, herbicidal effect rating (redroot pigweed [2])	I: wild oat, herbicidal effect rating (wild oat [3])	herbicidal effect on N: redroot pigweed (redroot pigweed [4])	H: barnyard grass, herbicidal effect rating (barnyard grass [5])	P: chickweed, herbicidal effect rating (chickweed [6])	herbicidal effect on H: barnyard grass (barnyard grass [7])	herbicidal effect on H: barnyard grass (barnyard grass [8])	J: blackgrass, herbicidal effect rating (blackgrass [9])	herbicidal effect on I: wild oat (wild oat [10])	herbicidal effect on P: chickweed (chickweed [11])	herbicidal effect on O: lambsquarters (lambsquarters [12])	L: windgrass, herbicidal effect rating (windgrass [13])	M: velvetleaf, herbicidal effect rating (velvetleaf [14])	herbicidal effect on K: Italian ryegrass (Italian ryegrass [15])	G: green foxtail, herbicidal effect rating (green foxtail [16])	herbicidal effect on M: velvetleaf (velvetleaf [17])	K: Italian ryegrass, herbicidal effect rating (Italian ryegrass [18])	other results
CCCCOc1ccc(-c2sc3ccc(Cl)cc3c2-c2c(O)c(C)nn(C)c2=O)cc1 [2-109]	0 (Herbicidal rate of 5% or less (almost no effect))	2 (Herbicidal rate of 20% or more and less than 40%)	2 (Herbicidal rate of 20% or more and less than 40%)	4 (Herbicidal rate of 70% or more and less than 90%)	0 (Herbicidal rate of 5% or less (almost no effect))	5 (Herbicidal rate of 90% or more (almost completely withered))	0 (Herbicidal rate of 5% or less (almost no effect))	0 (Herbicidal rate of 5% or less (almost no effect))	4 (Herbicidal rate of 70% or more and less than 90%)	4 (Herbicidal rate of 70% or more and less than 90%)	0 (Herbicidal rate of 5% or less (almost no effect))	0 (Herbicidal rate of 5% or less (almost no effect))	4 (Herbicidal rate of 70% or more and less than 90%)	4 (Herbicidal rate of 70% or more and less than 90%)	0 (Herbicidal rate of 5% or less (almost no effect))	1 (Herbicidal rate of 5% or more and less than 20%)	0 (Herbicidal rate of 5% or less (almost no effect))	0 (Herbicidal rate of 5% or less (almost no effect))	4 (Herbicidal rate of 70% or more and less than 90%)	0 (Herbicidal rate of 5% or less (almost no effect))	herbicidal effect on G: green foxtail (green foxtail [19]): 1 (Herbicidal rate of 5% or more and less than 20%); herbicidal effect on F: southern crabgrass (southern crabgrass [20]): 0 (Herbicidal rate of 5% or less (almost no effect)); herbicidal effect on J: blackgrass (blackgrass [21]): 0 (Herbicidal rate of 5% or less (almost no effect)); Herbicidal effect on B: Japanese bulrush (grade 0-5) (Japanese bulrush): 3 (Herbicidal rate of 40% or more and less than 70%); O: lambsquarters, herbicidal effect rating (lambsquarters [22]): 2 (Herbicidal rate of 20% or more and less than 40%); Herbicidal effect on A: late watergrass (grade 0-5) (late watergrass): 0 (Herbicidal rate of 5% or less (almost no effect)); herbicidal effect on L: windgrass (windgrass [23]): 0 (Herbicidal rate of 5% or less (almost no effect)); Herbicidal effect on C: oval-leafed pondweed (grade 0-5) (oval-leafed pondweed): 0 (Herbicidal rate of 5% or less (almost no effect)); R: persian speedwell, herbicidal effect rating (persian speedwell [24]): 3 (Herbicidal rate of 40% or more and less than 70%); herbicidal effect on R: persian speedwell (persian speedwell [25]): 5 (Herbicidal rate of 90% or more (almost completely withered))
COc1ccccc1-c1sc2ccc(I)cc2c1-c1c(O)c(C)nn(C)c1=O [2-130]	0 (Herbicidal rate of 5% or less (almost no effect))	4 (Herbicidal rate of 70% or more and less than 90%)	0 (Herbicidal rate of 5% or less (almost no effect))	2 (Herbicidal rate of 20% or more and less than 40%)	0 (Herbicidal rate of 5% or less (almost no effect))	5 (Herbicidal rate of 90% or more (almost completely withered))	0 (Herbicidal rate of 5% or less (almost no effect))	0 (Herbicidal rate of 5% or less (almost no effect))	0 (Herbicidal rate of 5% or less (almost no effect))	3 (Herbicidal rate of 40% or more and less than 70%)	0 (Herbicidal rate of 5% or less (almost no effect))	0 (Herbicidal rate of 5% or less (almost no effect))	5 (Herbicidal rate of 90% or more (almost completely withered))	2 (Herbicidal rate of 20% or more and less than 40%)	0 (Herbicidal rate of 5% or less (almost no effect))	0 (Herbicidal rate of 5% or less (almost no effect))	0 (Herbicidal rate of 5% or less (almost no effect))	0 (Herbicidal rate of 5% or less (almost no effect))	3 (Herbicidal rate of 40% or more and less than 70%)	0 (Herbicidal rate of 5% or less (almost no effect))	herbicidal effect on G: green foxtail (green foxtail [19]): 0 (Herbicidal rate of 5% or less (almost no effect)); herbicidal effect on F: southern crabgrass (southern crabgrass [20]): 0 (Herbicidal rate of 5% or less (almost no effect)); herbicidal effect on J: blackgrass (blackgrass [21]): 0 (Herbicidal rate of 5% or less (almost no effect)); Herbicidal effect on B: Japanese bulrush (grade 0-5) (Japanese bulrush): 3 (Herbicidal rate of 40% or more and less than 70%); O: lambsquarters, herbicidal effect rating (lambsquarters [22]): 3 (Herbicidal rate of 40% or more and less than 70%); Herbicidal effect on A: late watergrass (grade 0-5) (late watergrass): 0 (Herbicidal rate of 5% or less (almost no effect)); herbicidal effect on L: windgrass (windgrass [23]): 0 (Herbicidal rate of 5% or less (almost no effect)); Herbicidal effect on C: oval-leafed pondweed (grade 0-5) (oval-leafed pondweed): 0 (Herbicidal rate of 5% or less (almost no effect)); R: persian speedwell, herbicidal effect rating (persian speedwell [24]): 0 (Herbicidal rate of 5% or less (almost no effect)); herbicidal effect on R: persian speedwell (persian speedwell [25]): 3 (Herbicidal rate of 40% or more and less than 70%)
